Experiments:
Assay in all cases: normalized area under the dose-response curve (viability relative to DMSO control) (fraction); higher = less sensitive (more viable cells)
Conditions in all cases: exposure time not given
[1] = test system: Mino (cancer type: Mantle)
Method: (§1)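 25 myeloma and 15 non-Hodgkin lymphoma cell lines were exposed to each of 76 drugs as 7-point log dilutions (0.01 nM–10 µM) in duplicate. Viability was read with CellTiter-Glo and normalised to DMSO (0.1%) and staurosporine (10 µM) plate controls. Normalised AUC was calculated by the trapezoidal method relative to the negative control.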

L363 (cancer type: MM) = test system: L363 (cancer type: MM)
Method: as §1

[2] = test system: OCI-LY1 (cancer type: DLBCL)
Method: as §1

KMS11 (cancer type: MM) = test system: KMS11 (cancer type: MM)
Method: as §1

KMS34 (cancer type: MM) = test system: KMS34 (cancer type: MM)
Method: as §1

[3] = test system: OCI-MY5 (cancer type: MM)
Method: as §1

[4] = test system: SU-DHL6 (cancer type: DLBCL)
Method: as §1

LP1 (cancer type: MM) = test system: LP1 (cancer type: MM)
Method: as §1

[5] = test system: JeKo-1 (cancer type: Mantle)
Method: as §1

[6] = test system: SR-786 (cancer type: TCL)
Method: as §1

[7] = test system: OCI-LY3 (cancer type: DLBCL)
Method: as §1

[8] = test system: OCI-MY5/CRBN (cancer type: MM)
Method: as §1

JJN3 (cancer type: MM) = test system: JJN3 (cancer type: MM)
Method: as §1

[9] = test system: Granta-519 (cancer type: Mantle)
Method: as §1

[10] = test system: HuT 78 (cancer type: TCL)
Method: as §1

[11] = test system: KMS12PE (cancer type: MM)
Method: as §1

My-La (cancer type: TCL) = test system: My-La (cancer type: TCL)
Method: as §1

[12] = test system: Karpas-299 (cancer type: TCL)
Method: as §1

[13] = test system: RPMI 8226 (cancer type: MM)
Method: as §1

Se-Ax (cancer type: TCL) = test system: Se-Ax (cancer type: TCL)
Method: as §1

FR4 (cancer type: MM) = test system: FR4 (cancer type: MM)
Method: as §1

AMO1 (cancer type: MM) = test system: AMO1 (cancer type: MM)
Method: as §1

[14] = test system: SU-DHL2 (cancer type: DLBCL)
Method: as §1

MM1.S (cancer type: MM) = test system: MM1.S (cancer type: MM)
Method: as §1

[15] = test system: NCI-H929 (cancer type: MM)
Method: as §1

MM1.R (cancer type: MM) = test system: MM1.R (cancer type: MM)
Method: as §1

[16] = test system: OCI-MY5/Vec (cancer type: MM)
Method: as §1

SKMM2 (cancer type: MM) = test system: SKMM2 (cancer type: MM)
Method: as §1

[17] = test system: OCI-MY7 (cancer type: MM)
Method: as §1

[18] = test system: JVM2 (cancer type: Mantle)
Method: as §1

U266 (cancer type: MM) = test system: U266 (cancer type: MM)
Method: as §1

KMS26 (cancer type: MM) = test system: KMS26 (cancer type: MM)
Method: as §1

[19] = test system: KMS28BM (cancer type: MM)
Method: as §1

OPM2 (cancer type: MM) = test system: OPM2 (cancer type: MM)
Method: as §1

XG2 (cancer type: MM) = test system: XG2 (cancer type: MM)
Method: as §1

KMS18 (cancer type: MM) = test system: KMS18 (cancer type: MM)
Method: as §1

[20] = test system: KMS28PE (cancer type: MM)
Method: as §1

EJM (cancer type: MM) = test system: EJM (cancer type: MM)
Method: as §1

[21] = test system: OCI-LY19 (cancer type: DLBCL)
Method: as §1

[22] = test system: SU-DHL1 (cancer type: TCL)
Method: as §1

SMILES: CC(=O)Nc1cccc(-n2c(=O)n(C3CC3)c(=O)c3c(Nc4ccc(I)cc4F)n(C)c(=O)c(C)c32)c1 [Trametinib]
- normalized area under the dose-response curve [1]: 0.948
- normalized area under the dose-response curve (L363 (cancer type: MM)): 0.835
- normalized area under the dose-response curve [2]: 0.908
- normalized area under the dose-response curve (KMS11 (cancer type: MM)): 0.869
- normalized area under the dose-response curve (KMS34 (cancer type: MM)): 0.681
- normalized area under the dose-response curve [3]: 0.764
- normalized area under the dose-response curve [4]: 0.841
- normalized area under the dose-response curve (LP1 (cancer type: MM)): 0.64
- normalized area under the dose-response curve [5]: 0.986
- normalized area under the dose-response curve [6]: 0.877
- normalized area under the dose-response curve [7]: 0.865
- normalized area under the dose-response curve [8]: 0.969
- normalized area under the dose-response curve (JJN3 (cancer type: MM)): 0.858
- normalized area under the dose-response curve [9]: 0.913
- normalized area under the dose-response curve [10]: 0.672
- normalized area under the dose-response curve [11]: 0.8
- normalized area under the dose-response curve (My-La (cancer type: TCL)): 0.868
- normalized area under the dose-response curve [12]: 0.794
- normalized area under the dose-response curve [13]: 0.909
- normalized area under the dose-response curve (Se-Ax (cancer type: TCL)): 0.713
- normalized area under the dose-response curve (FR4 (cancer type: MM)): 0.967
- normalized area under the dose-response curve (AMO1 (cancer type: MM)): 0.575
- normalized area under the dose-response curve [14]: 0.77
- normalized area under the dose-response curve (MM1.S (cancer type: MM)): 0.71
- normalized area under the dose-response curve [15]: 0.6
- normalized area under the dose-response curve (MM1.R (cancer type: MM)): 0.67
- normalized area under the dose-response curve [16]: 0.943
- normalized area under the dose-response curve (SKMM2 (cancer type: MM)): 0.964
- normalized area under the dose-response curve [17]: 0.67
- normalized area under the dose-response curve [18]: 0.561
- normalized area under the dose-response curve (U266 (cancer type: MM)): 0.922
- normalized area under the dose-response curve (KMS26 (cancer type: MM)): 0.774
- normalized area under the dose-response curve [19]: 0.861
- normalized area under the dose-response curve (OPM2 (cancer type: MM)): 0.719
- normalized area under the dose-response curve (XG2 (cancer type: MM)): 0.727
- normalized area under the dose-response curve (KMS18 (cancer type: MM)): 0.779
- normalized area under the dose-response curve [20]: 0.867
- normalized area under the dose-response curve (EJM (cancer type: MM)): 0.838
- normalized area under the dose-response curve [21]: 0.898
- normalized area under the dose-response curve [22]: 0.501

SMILES: COc1cc2/c(=N/c3ccc(Br)cc3F)nc[nH]c2cc1OCC1CCN(C)CC1 [Vandetanib]
- normalized area under the dose-response curve [1]: 0.921
- normalized area under the dose-response curve (L363 (cancer type: MM)): 0.795
- normalized area under the dose-response curve [2]: 0.918
- normalized area under the dose-response curve (KMS11 (cancer type: MM)): 0.777
- normalized area under the dose-response curve (KMS34 (cancer type: MM)): 0.623
- normalized area under the dose-response curve [3]: 0.784
- normalized area under the dose-response curve [4]: 0.96
- normalized area under the dose-response curve (LP1 (cancer type: MM)): 0.684
- normalized area under the dose-response curve [5]: 0.937
- normalized area under the dose-response curve [6]: 0.961
- normalized area under the dose-response curve [7]: 0.993
- normalized area under the dose-response curve [8]: 0.95
- normalized area under the dose-response curve (JJN3 (cancer type: MM)): 0.873
- normalized area under the dose-response curve [9]: 0.892
- normalized area under the dose-response curve [10]: 0.892
- normalized area under the dose-response curve [11]: 0.95
- normalized area under the dose-response curve (My-La (cancer type: TCL)): 0.906
- normalized area under the dose-response curve [12]: 0.896
- normalized area under the dose-response curve [13]: 0.905
- normalized area under the dose-response curve (Se-Ax (cancer type: TCL)): 0.784
- normalized area under the dose-response curve (FR4 (cancer type: MM)): 0.922
- normalized area under the dose-response curve (AMO1 (cancer type: MM)): 0.767
- normalized area under the dose-response curve [14]: 0.911
- normalized area under the dose-response curve (MM1.S (cancer type: MM)): 0.86
- normalized area under the dose-response curve [15]: 0.87
- normalized area under the dose-response curve (MM1.R (cancer type: MM)): 0.87
- normalized area under the dose-response curve [16]: 0.908
- normalized area under the dose-response curve (SKMM2 (cancer type: MM)): 0.963
- normalized area under the dose-response curve [17]: 0.96
- normalized area under the dose-response curve [18]: 0.773
- normalized area under the dose-response curve (U266 (cancer type: MM)): 0.746
- normalized area under the dose-response curve (KMS26 (cancer type: MM)): 0.962
- normalized area under the dose-response curve [19]: 0.985
- normalized area under the dose-response curve (OPM2 (cancer type: MM)): 0.861
- normalized area under the dose-response curve (XG2 (cancer type: MM)): 0.726
- normalized area under the dose-response curve (KMS18 (cancer type: MM)): 0.774
- normalized area under the dose-response curve [20]: 0.844
- normalized area under the dose-response curve (EJM (cancer type: MM)): 0.672
- normalized area under the dose-response curve [21]: 0.969
- normalized area under the dose-response curve [22]: 0.77

SMILES: CCCS(=O)(=O)Nc1ccc(F)c(C(=O)c2c[nH]c3ncc(-c4ccc(Cl)cc4)cc23)c1F [Vemurafenib]
- normalized area under the dose-response curve [1]: 0.917
- normalized area under the dose-response curve (L363 (cancer type: MM)): 0.898
- normalized area under the dose-response curve [2]: 0.933
- normalized area under the dose-response curve (KMS11 (cancer type: MM)): 0.909
- normalized area under the dose-response curve (KMS34 (cancer type: MM)): 0.765
- normalized area under the dose-response curve [3]: 0.788
- normalized area under the dose-response curve [4]: 0.92
- normalized area under the dose-response curve (LP1 (cancer type: MM)): 0.89
- normalized area under the dose-response curve [5]: 0.971
- normalized area under the dose-response curve [6]: 0.98
- normalized area under the dose-response curve [7]: 0.951
- normalized area under the dose-response curve [8]: 0.958
- normalized area under the dose-response curve (JJN3 (cancer type: MM)): 0.784
- normalized area under the dose-response curve [9]: 0.957
- normalized area under the dose-response curve [10]: 0.964
- normalized area under the dose-response curve [11]: 0.91
- normalized area under the dose-response curve (My-La (cancer type: TCL)): 0.976
- normalized area under the dose-response curve [12]: 0.969
- normalized area under the dose-response curve [13]: 0.975
- normalized area under the dose-response curve (Se-Ax (cancer type: TCL)): 0.673
- normalized area under the dose-response curve (FR4 (cancer type: MM)): 0.825
- normalized area under the dose-response curve (AMO1 (cancer type: MM)): 0.808
- normalized area under the dose-response curve [14]: 0.972
- normalized area under the dose-response curve (MM1.S (cancer type: MM)): 0.95
- normalized area under the dose-response curve [15]: 0.79
- normalized area under the dose-response curve (MM1.R (cancer type: MM)): 0.97
- normalized area under the dose-response curve [16]: 0.998
- normalized area under the dose-response curve (SKMM2 (cancer type: MM)): 0.994
- normalized area under the dose-response curve [17]: 0.94
- normalized area under the dose-response curve [18]: 0.924
- normalized area under the dose-response curve (U266 (cancer type: MM)): 0.8
- normalized area under the dose-response curve (KMS26 (cancer type: MM)): 0.965
- normalized area under the dose-response curve [19]: 1.28
- normalized area under the dose-response curve (OPM2 (cancer type: MM)): 0.936
- normalized area under the dose-response curve (XG2 (cancer type: MM)): 1
- normalized area under the dose-response curve (KMS18 (cancer type: MM)): 0.938
- normalized area under the dose-response curve [20]: 0.998
- normalized area under the dose-response curve (EJM (cancer type: MM)): 0.902
- normalized area under the dose-response curve [21]: 0.912
- normalized area under the dose-response curve [22]: 0.867

SMILES: CC1(C)CCC(CN2CCN(c3ccc(C(=O)NS(=O)(=O)c4ccc(NCC5CCOCC5)c([N+](=O)[O-])c4)c(Oc4cnc5[nH]ccc5c4)c3)CC2)=C(c2ccc(Cl)cc2)C1 [Venetoclax]
- normalized area under the dose-response curve [1]: 0.876
- normalized area under the dose-response curve (L363 (cancer type: MM)): 0.584
- normalized area under the dose-response curve [2]: 0.176
- normalized area under the dose-response curve (KMS11 (cancer type: MM)): 0.591
- normalized area under the dose-response curve (KMS34 (cancer type: MM)): 0.525
- normalized area under the dose-response curve [3]: 0.101
- normalized area under the dose-response curve [4]: 0.0483
- normalized area under the dose-response curve (LP1 (cancer type: MM)): 0.817
- normalized area under the dose-response curve [5]: 0.686
- normalized area under the dose-response curve [6]: 0.952
- normalized area under the dose-response curve [7]: 0.179
- normalized area under the dose-response curve [8]: 0.0571
- normalized area under the dose-response curve (JJN3 (cancer type: MM)): 0.354
- normalized area under the dose-response curve [9]: 0.212
- normalized area under the dose-response curve [10]: 0.752
- normalized area under the dose-response curve [11]: 0.09
- normalized area under the dose-response curve (My-La (cancer type: TCL)): 0.872
- normalized area under the dose-response curve [12]: 0.829
- normalized area under the dose-response curve [13]: 0.481
- normalized area under the dose-response curve (Se-Ax (cancer type: TCL)): 0.196
- normalized area under the dose-response curve (FR4 (cancer type: MM)): 0.617
- normalized area under the dose-response curve (AMO1 (cancer type: MM)): 0.64
- normalized area under the dose-response curve [14]: 0.982
- normalized area under the dose-response curve (MM1.S (cancer type: MM)): 0.57
- normalized area under the dose-response curve [15]: 0.82
- normalized area under the dose-response curve (MM1.R (cancer type: MM)): 0.48
- normalized area under the dose-response curve [16]: 0.0321
- normalized area under the dose-response curve (SKMM2 (cancer type: MM)): 0.0382
- normalized area under the dose-response curve [17]: 0.14
- normalized area under the dose-response curve [18]: 0.73
- normalized area under the dose-response curve (U266 (cancer type: MM)): 0.366
- normalized area under the dose-response curve (KMS26 (cancer type: MM)): 0.919
- normalized area under the dose-response curve [19]: 0.119
- normalized area under the dose-response curve (OPM2 (cancer type: MM)): 0.371
- normalized area under the dose-response curve (XG2 (cancer type: MM)): 0.846
- normalized area under the dose-response curve (KMS18 (cancer type: MM)): 0.514
- normalized area under the dose-response curve [20]: 0.251
- normalized area under the dose-response curve (EJM (cancer type: MM)): 0.615
- normalized area under the dose-response curve [21]: 0.247
- normalized area under the dose-response curve [22]: 0.696
